Legend:
Assay type in all cases: cell-based
[1] = target: T1, TREM2 (Homo sapiens, UniProt Q9NZC2); assay: Liposome stimulation pSyk AlphaLISA, HEK293 overexpressing TREM2 and DAP12; settings: liposomes 30% lipid/70% PC (KLA 10%/90%), fold change over HBSS
T1 construct: expressed in transfected cells
Procedure: (§1) Lipids were purchased from Avanti Polar Lipids (Alabaster, Ala.) or Echelon Biosciences (Salt Lake City, Utah). Each screened lipid was resuspended in chloroform and added at 30 mole percent composition to 70 mole percent phosphatidylcholine (PC; 1,2-dioleoyl-sn-glycero-3-phosphocholine, Avanti Polar Lipids). Kdo2-Lipid A was added at a 10 mole percent composition with 90 mole percent PC. Lipid mixes were dried under nitrogen gas and resuspended in HBSS at a concentration of 4 mg/mL. Mixes were vortexed or briefly sonicated until resuspended, then bath sonicated for 1-5 minutes. Liposomes were used for 1-2 weeks. 3 independent batches of liposomes were used in experiments.
(§2) HEK293 cell lines overexpressing TREM2 and DAP12, mutant TREM2-R47H and DAP12, or DAP12 alone were plated in 96-well PDL-coated plates at a density of 40,000 cells per well and cultured for 36-48 hours until 90-100% confluent.
(§3) Cell culture medium was removed and cells were washed once with 200ul HBSS. Liposomes were diluted in HBSS in concentrations ranging from 0.03125 mg/mL to 2 mg/mL, then 50 μl was added to wells in 2-3 technical replicates per plate. Each plate contained HBSS negative control wells, 100% PC liposome control, 5 μg/mL agonist anti-TREM2 positive control (Abnova; Taiwan; # MAB2056), and 5 μg/mL mouse IgG3 isotype control (R&D Systems; Minneapolis, Minn.; # MAB007). Stimuli were incubated with cells for 5 minutes at 37° C., 5% CO2, liposomes were removed, and plates were frozen at −80° C.
(§4) Cells were lysed for 30 minutes to 1 hour on ice in 50 ul/well Cell Lysis Buffer (Cell Signaling Technology; Danvers, Mass.; #9803) with 1 mM PMSF. AlphaLISA SureFire Ultra p-Syk Tyr525/526 assay kit (PerkinElmer, ALSU-PSYK-A10OK) was used to measure pSyk levels in lysate as per manufacturer protocol. 10 μl lysate was added to 384-well OptiPlates (PerkinElmer; #6007290) and an EnVision Multilabel Plate Reader (PerkinElmer) was used to measure AlphaLISA fluorescence.
(§5) PSyk AlphaLISA fluorescence was converted to a log 2 scale. Fluorescence values from liposomes and controls were each subtracted from average fluorescence values from HBSS stimulated wells on the same plate (log 2(liposome)−log 2(HBSSave)=log 2(signal)). The result was converted back to a standard scale to measure fold change (2^log 2(signal)=fold change). Technical replicate fold changes values were averaged to obtain the fold change over background listed (pSyk FOB). Graphs represent values from independent experiments or individual human donors. Results from the screen on the HEK293 overexpressing cell lines are shown in Table 9 below and in FIG. 8A-8B. HEK293 results showing specificity for TREM2 over DAP12 expressed alone can be used to extrapolate which lipid species are likely acting as TREM2 ligands on human macrophages.

[2] = target: T2, R47H TREM2 mutant (Homo sapiens, UniProt Q9NZC2, R47H); assay: Liposome stimulation pSyk AlphaLISA, HEK293 overexpressing TREM2-R47H and DAP12; settings: liposomes 30% lipid/70% PC (KLA 10%/90%), fold change over HBSS
T2 construct: expressed in transfected cells
T2 sequence (Q9NZC2 19-230 R47H): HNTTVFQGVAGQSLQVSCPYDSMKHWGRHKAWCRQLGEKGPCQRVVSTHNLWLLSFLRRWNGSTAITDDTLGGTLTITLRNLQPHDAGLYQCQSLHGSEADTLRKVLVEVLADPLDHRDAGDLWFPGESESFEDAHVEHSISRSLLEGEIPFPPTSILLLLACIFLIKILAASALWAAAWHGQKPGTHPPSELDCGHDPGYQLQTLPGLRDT
T2 sequence (O43914 22-113 partner): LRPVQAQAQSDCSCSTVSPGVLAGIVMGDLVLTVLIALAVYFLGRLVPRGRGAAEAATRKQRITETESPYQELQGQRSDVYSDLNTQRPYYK
Procedure: as §1, §2, §3, §4, §5

[3] = target: T3, DAP12 alone (Homo sapiens, UniProt O43914); assay: Liposome stimulation pSyk AlphaLISA, HEK293 expressing DAP12 alone; settings: liposomes 30% lipid/70% PC (KLA 10%/90%), fold change over HBSS
T3 construct: expressed in transfected cells
T3 sequence (O43914 22-113): as the sequence (O43914 22-113 partner) above
Procedure: as §1, §2, §3, §4, §5

[4] = system: primary human macrophages; assay: Liposome stimulation pSyk AlphaLISA, primary human macrophages; settings: liposomes 30% lipid/70% PC (KLA 10%/90%)
Procedure: as §1
10 mL human blood was obtained from Blood Centers of the Pacific. Monocytes were extracted using RosetteSep Human Monocyte Enrichment Cocktail ([…] Technologies Inc.; Vancouver, BC; #15068) as per manufacturer protocols. Density gradient was performed with Ficoll-Paque Premium (GE Healthcare Life Sciences; Pittsburgh, Pa.; #17-5442-02). Isolated monocytes were resuspended at ˜1-1.3 million cells/mL and cultured for 5-6 days in RPMI, 10% Hyclone Fetal Bovine Serum, and penicillin/streptomycin supplemented with 50 ng/mL human M-CSF (Gibco, # PHC9501) in T175 tissue culture treated flasks. M-CSF was replenished every 2-3 days. Cells were washed once with PBS, 15 mL fresh medium was added, and cells were harvested by scraping. Cells were cultured overnight at a density of 100,000 cells per well on tissue culture treated 96-well plates supplemented with 10-25 ng/mL M-CSF.
as §3, §4, §5

T1 sequence (Q9NZC2 19-230): as the sequence (Q9NZC2 19-230 R47H) above, with H29R counted along it
T1 sequence (O43914 22-113 partner): as the sequence (O43914 22-113 partner) above

Row | Compound | Human TREM2 (pSyk FOB) [1] [FOB] | R47H TREM2 mutant (pSyk FOB) [2] [FOB] | DAP12 alone (pSyk FOB) [3] [FOB] | pSyk FOB [4] [FOB]
1 | CC(C)CCC[C@@H](C)[C@H]1CC[C@H]2[C@@H]3C(=O)C=C4C[C@@H](O)CC[C@]4(C)[C@H]3CC[C@]12C [7-ketocholesterol (7-KC), 7-ketocholesterol] | 1.10 | 3.42 | 1.36 | 1.18
2 | CCCCCCCCCCCCCC(=O)O[C@H](CCCCCCCCCCC)CC(=O)O[C@@H]1[C@@H](NC(=O)C[C@@H](CCCCCCCCCCC)OC(=O)CCCCCCCCCCC)[C@H](OC[C@H]2O[C@H](OP(=O)(O)O)[C@H](NC(=O)C[C@H](O)CCCCCCCCCCC)[C@@H](OC(=O)C[C@H](O)CCCCCCCCCCC)[C@@H]2O)O[C@H](CO[C@]2(C(=O)O)C[C@@H](O[C@]3(C(=O)O)C[C@@H](O)[C@@H](O)[C@@H]([C@H](O)CO)O3)[C@@H](O)[C@@H]([C@H](O)CO)O2)[C@H]1OP(=O)(O)O [Kdo2-Lipid A (KLA), Kdo2-Lipid A] | 5.15 | 6.65 | 1.25 | 2.73
3 | C[C@@H](CO)CCC[C@@H](C)[C@H]1CC[C@H]2[C@@H]3CC=C4C[C@@H](O)CC[C@]4(C)[C@H]3CC[C@]12C [27-hydroxycholesterol (27OHC), 27-hydroxycholesterol] | 5.26 | 9.25 | 1.36 | 1.72
4 | CCCCCCCCCCCCC/C=C/[C@@H](O)[C@@H](N)COP(=O)([O-])OCC[N+](C)(C)C [Lysosphingomyelin (LSM), Lysosphingomyelin] | 0.67 | 0.85 | 1.03 | 1.26
5 | CC(C)[C@@H](O)CC[C@@H](C)[C@H]1CC[C@H]2[C@@H]3CC=C4C[C@@H](O)CC[C@]4(C)[C@H]3CC[C@]12C [24(S)hydroxycholesterol (24OHC), 24(S)hydroxycholesterol] | 4.50 | 8.44 | 1.57 | 1.56
6 | Palmitic-acid-9-hydroxy-stearic-acid | 5.87 | 7.31 | 1.27 | 3.94
7 | CCCCCCCCCCCCCCC[C@@H](O)[C@@H](N)COP(=O)(O)O [Sphinganine-1-phosphate (SalP), Sphinganine-1-phosphate] | 3.31 | 5.32 | 1.34 | 1.08
8 | CC(C)CCC[C@@H](C)[C@H]1CC[C@H]2[C@@H]3CC=C4C[C@@H](OP(=O)(O)O)CC[C@]4(C)[C@H]3CC[C@]12C [Cholesterol phosphate (CP), Cholesterol phosphate] | 2.43 | 3.09 | 1.27 | 1.18

Second part, led by results:

Row | Human TREM2 (pSyk FOB) [1] [FOB] | R47H TREM2 mutant (pSyk FOB) [2] [FOB] | DAP12 alone (pSyk FOB) [3] [FOB] | Compound | pSyk FOB [4] [FOB]
9 | 1.34 | 1.27 | 1.31 | CCCCCCCCCCCCC/C=C/[C@@H](O)[C@@H](N)CO[C@@H]1O[C@H](CO)[C@@H](O)[C@H](O)[C@H]1O [Glucosyl sphingosine (GlcSo), Glucosyl sphingosine] | 2.05
10 | 1.89 | 2.06 | 1.27 | Lactosylceramide [Lactosylceramide (LacCer)] | 1.29
11 | 1.49 | 2.49 | 1.51 | Phosphatidylethanolamine [Phosphatidylethanolamine (PE) or DSPE] | 1.53
12 | 2.17 | 2.72 | 1.48 | Phosphatidic acid [Phosphatidic acid (PA)] | 2.17
13 | 1.74 | 2.09 | 1.40 | Sphingomyelin [Sphingomyelin (SM)] | 1.02
14 | 1.12 | 0.32 | 1.03 | Lysophosphatidylinositol [Lysophosphatidylinositol (LPI)] | 1.61
15 | 3.42 | 3.70 | 1.16 | CCCCCCCC(=O)OC[C@H](COP(=O)(O)OP(=O)(O)O)OC(=O)CCCCCCC [Diacylglycerol pyrophosphate (DGPP), Diacylglycerol pyrophosphate] | 1.61
16 | 3.79 | 3.31 | 1.26 | Cardiolipin [Cardiolipin (CL)] | 2.50
17 | 1.04 | 2.24 | 1.14 | CC(C)CCC[C@@H](C)[C@H]1CC[C@H]2[C@@H]3CC=C4C[C@@H](O)CC[C@]4(C)[C@H]3CC[C@]12C [Free cholesterol (FC), Free cholesterol] | 1.44
18 | 4.31 | 2.27 | 1.04 | Phosphatidylinositol [Phosphatidylinositol (PI)] | 2.09
19 | 4.94 | 4.93 | 0.92 | Ganglioside GM1 | 1.52
20 | 5.02 | 6.34 | 1.21 | Sulfatide | 1.75
21 | 2.20 | 2.21 | 1.30 | Ceramide | 1.44
